Results on 25 compounds are retold here after PubChem BioAssay (NCI).

Some test systems named below: 786-0 renal; CCRF-CEM leukemia; COLO 205 colon; HL-60(TB) leukemia; KM12 colon; RXF 393 renal; SW-620 colon; HCT-15 colon.
Common to all, as to assay: NCI-60 cell line screen, 48 h

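Tested at 5 concentrations; 48 h exposure; 96-well plates; endpoints linearly interpolated, else capped at highest concentration. GI50 marks 50% less growth. TGI: total growth inhibition.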

As for `CC1C[C@H](C)CC(C(O)CC2CC(=O)N(Cc3ccccc3)C(=O)C2)C1O` (stereo partly specified), the TGI in the assay with 786-0 renal, in the assay with CCRF-CEM leukemia, in the assay on COLO 205 colon, in the assay with HL-60(TB) leukemia, with KM12 colon and with RXF 393 renal was more than 100 µM in each case. Besides, the TGI in the assay on SW-620 colon is more than 100 µM.

With `O=C(c1ccccc1)N1C2CCC1C(C(F)(F)F)=C2C(F)(F)F`, the TGI in the assay on 786-0 renal, in the assay on CCRF-CEM leukemia, with COLO 205 colon, in the assay on HCT-15 colon, with HL-60(TB) leukemia and with KM12 colon was more than 100 µM in each case. For the same compound, the TGI with RXF 393 renal and in the assay with SW-620 colon was more than 100 µM each time.

Consider `COc1c(C(=O)c2ccc([N+](=O)[O-])cc2)cc(C(C)(C)C)cc1C(C)(C)C`, for which the TGI was more than 100 µM in the assay on 786-0 renal; 97.5 µM with CCRF-CEM leukemia; more than 100 µM in the assay on HCT-15 colon; 47.2 µM with HL-60(TB) leukemia; more than 100 µM in the assay with KM12 colon; 62.2 µM in the assay with RXF 393 renal. This compound also had a TGI in the assay with SW-620 colon of more than 100 µM.

As for `CC(=O)OC1CCCn2c1nc1c2C(=O)C(C)=C(N2CC2)C1=O` (stereo unspecified), the TGI in the assay on 786-0 renal is 1.65 µM; in the assay with CCRF-CEM leukemia it was 59 µM; in the assay with COLO 205 colon, 1.2 µM; in the assay on HCT-15 colon, 0.726 µM; in the assay on HL-60(TB) leukemia, 14.6 µM; in the assay with KM12 colon it was 1.24 µM. The TGI in the assay on RXF 393 renal is 0.768 µM; in the assay on SW-620 colon it was 0.927 µM.

For `CC1SC2=NC3=C(c4ccccc4C3=O)C(c3ccc(Cl)cc3)N2C1=O` (stereo unspecified), the TGI with 786-0 renal, with CCRF-CEM leukemia, with COLO 205 colon, with HCT-15 colon, with HL-60(TB) leukemia and with KM12 colon was more than 100 µM throughout. Besides, the TGI in the assay with SW-620 colon is more than 100 µM.

As to `CNCc1cc(OC)ccc1-c1ccc(OC)c(OC)c1OC`, the TGI in the assay with 786-0 renal, in the assay on CCRF-CEM leukemia, in the assay on COLO 205 colon, with HCT-15 colon, in the assay with HL-60(TB) leukemia and with KM12 colon was more than 100 µM throughout. Besides, the TGI with RXF 393 renal and in the assay on SW-620 colon was more than 100 µM in each case.

For `CC1CC(=O)Nc2ccccc2N1C(=O)CN1CCC(CCCCN(C)C)CC1` (stereo unspecified), the TGI in the assay with 786-0 renal, in the assay on CCRF-CEM leukemia, with COLO 205 colon, with HCT-15 colon, in the assay with HL-60(TB) leukemia and in the assay on KM12 colon was more than 100 µM each time. Moreover, the TGI in the assay with RXF 393 renal and with SW-620 colon was more than 100 µM in each case.

Consider `CC(=O)c1ccc(OCC(O)CO)cc1` (stereo unspecified), for which the TGI with 786-0 renal is 76.2 µM; in the assay with CCRF-CEM leukemia, more than 100 µM; with COLO 205 colon, more than 100 µM; in the assay on HCT-15 colon it was more than 100 µM; in the assay with HL-60(TB) leukemia, more than 100 µM; in the assay on KM12 colon, more than 100 µM. The compound further yielded a TGI with SW-620 colon of 29.4 µM.

In the case of `CC[P+](C)(C)c1ccccc1`, the TGI in the assay with 786-0 renal, in the assay on CCRF-CEM leukemia, in the assay with COLO 205 colon, in the assay on HCT-15 colon, in the assay on KM12 colon and in the assay with RXF 393 renal was more than 100 µM throughout. The TGI in the assay on SW-620 colon was more than 100 µM.

With `CCOC(=O)CSC(=O)NCCCl`, the TGI in the assay on 786-0 renal, in the assay on CCRF-CEM leukemia, in the assay with COLO 205 colon, in the assay on HCT-15 colon, with HL-60(TB) leukemia and with KM12 colon was more than 100 µM throughout. In addition, the TGI in the assay with RXF 393 renal and in the assay with SW-620 colon was more than 100 µM in each case. The GI50 in the assay on CCRF-CEM leukemia was 7.22 µM; in the assay on HL-60(TB) leukemia, 22.3 µM.

Regarding `CC1=NOC(=O)/C1=C/c1cccc2ccccc12`, the TGI with 786-0 renal, in the assay on CCRF-CEM leukemia, in the assay with COLO 205 colon, in the assay on HCT-15 colon, with HL-60(TB) leukemia and with KM12 colon was more than 100 µM in each case. The TGI with RXF 393 renal and in the assay on SW-620 colon was more than 100 µM throughout.

For `O=C1c2ccccc2C(=O)N1CCN(CCN1C(=O)c2ccccc2C1=O)Cn1cccn1`, the TGI was more than 100 µM in the assay on 786-0 renal; more than 100 µM in the assay on CCRF-CEM leukemia; more than 100 µM with COLO 205 colon; more than 100 µM with HCT-15 colon; 74.5 µM in the assay with HL-60(TB) leukemia; more than 100 µM with KM12 colon. Further, the TGI in the assay on RXF 393 renal and in the assay with SW-620 colon was more than 100 µM each time.

On to `NNC(=O)CNC(=O)c1ccc(Cl)cc1Cl`, for which the TGI with 786-0 renal, with CCRF-CEM leukemia, in the assay with COLO 205 colon, in the assay on HCT-15 colon, with HL-60(TB) leukemia and in the assay on KM12 colon was more than 100 µM throughout. In the assay with SW-620 colon, the TGI was determined as 33.3 µM.

For the compound `CC(=O)Nc1cc(N(CCOS(C)(=O)=O)CCOS(C)(=O)=O)ccc1N=O`, the TGI with 786-0 renal, in the assay with CCRF-CEM leukemia, in the assay on COLO 205 colon, in the assay on HCT-15 colon, with HL-60(TB) leukemia and in the assay on KM12 colon was more than 100 µM each time. This compound also returned a TGI in the assay on SW-620 colon of more than 100 µM.

On to `CC(/C(=N\Nc1ccccc1)c1ccc(O)cc1)C1C(=O)Oc2ccccc21` (stereo unspecified), for which the TGI in the assay on 786-0 renal, in the assay on CCRF-CEM leukemia, with COLO 205 colon, in the assay on HCT-15 colon, with HL-60(TB) leukemia and with KM12 colon was more than 100 µM throughout. The TGI with RXF 393 renal and in the assay with SW-620 colon was more than 100 µM throughout.

In the case of `O=C(O)C[C@H]1CCCCC12CCOC2=O` (stereo partly specified), the TGI in the assay on 786-0 renal, in the assay on CCRF-CEM leukemia, in the assay with COLO 205 colon, in the assay with HL-60(TB) leukemia, with KM12 colon and in the assay with RXF 393 renal was more than 100 µM throughout. Further, in the assay on SW-620 colon, the TGI is more than 100 µM.

Take `COC(=O)C(Cc1cc(OC)c(OC)c(OC)c1)c1ccc(OC)cc1` (stereo unspecified): the TGI with 786-0 renal, in the assay with CCRF-CEM leukemia, in the assay on COLO 205 colon, in the assay with HCT-15 colon, in the assay on HL-60(TB) leukemia and in the assay with KM12 colon was more than 100 µM throughout. Besides, the TGI with RXF 393 renal and in the assay on SW-620 colon was more than 100 µM in each case.

For `N#Cc1c2c(c(N=P(c3ccccc3)(c3ccccc3)c3ccccc3)n3c1nc1ccccc13)CCCC2`, the TGI in the assay on 786-0 renal was more than 100 µM; in the assay on CCRF-CEM leukemia, 57.7 µM; with COLO 205 colon, 24.8 µM; with HCT-15 colon it was more than 100 µM; in the assay with HL-60(TB) leukemia it was 24.8 µM; with KM12 colon it was more than 100 µM. Besides, the TGI was 98.5 µM in the assay on RXF 393 renal and more than 100 µM in the assay on SW-620 colon.

Take `Cc1cc2c(cc1C)[n+](=O)c(C(=O)C/C(=N/OCCCc1ccccc1)C(=O)Nc1cc(Cl)ccc1Cl)c(C)n2[O-]`: the TGI in the assay with 786-0 renal, with CCRF-CEM leukemia, in the assay with COLO 205 colon, in the assay with HCT-15 colon, with HL-60(TB) leukemia and in the assay on KM12 colon was more than 100 µM each time. Besides, the TGI in the assay with RXF 393 renal and with SW-620 colon was more than 100 µM each time.

Consider `CO[C@@H]1C=C[C@@]23c4cc5c(cc4C(=O)O[C@H]2CN(C)[C@H]3C1)OCO5`, for which the TGI in the assay on 786-0 renal, in the assay on CCRF-CEM leukemia, with COLO 205 colon, in the assay on HL-60(TB) leukemia, in the assay with KM12 colon and with RXF 393 renal was more than 100 µM in each case. Further, the TGI in the assay on SW-620 colon was more than 100 µM.

As to `Cc1ccc(NC(=O)C(=O)C(C#N)c2nc(-c3ccc(-c4ccccc4)cc3)cs2)c(C)c1` (stereo unspecified), the TGI in the assay with 786-0 renal, in the assay with COLO 205 colon, in the assay with HCT-15 colon, with RXF 393 renal and with SW-620 colon was more than 100 µM in each case.

In the case of `CC1(C)C(O)C[C@@H](O)[C@@]2(C)C1CC[C@]1(C)C2C[C@@H](O)[C@@H]2C([C@@]3(C)CC[C@@H](C(C)(C)O)O3)CCC21C` (stereo partly specified), the TGI in the assay with 786-0 renal is 30.1 µM; in the assay on CCRF-CEM leukemia it was more than 66.1 µM; in the assay with COLO 205 colon it was 30 µM; in the assay with HCT-15 colon, 25.1 µM; with HL-60(TB) leukemia, more than 55 µM; in the assay with KM12 colon it was 30.6 µM. For the same compound, the TGI with RXF 393 renal was determined as 27.1 µM; in the assay on SW-620 colon, 30.5 µM.

In the case of `CCc1c(Cc2[nH]c(Cc3[nH]c(C=O)c(C)c3CC)c(CC)c2CC)[nH]c(C=O)c1C`, the TGI with 786-0 renal, with CCRF-CEM leukemia, in the assay with COLO 205 colon, in the assay with HCT-15 colon, in the assay on HL-60(TB) leukemia and in the assay on RXF 393 renal was more than 100 µM each time. In addition, in the assay with SW-620 colon, the TGI was more than 100 µM.

Turning to `COC(=O)C(CC(C)C)NC(=O)NC12CC3CC(CC(F)(C3)C1)C2` (stereo unspecified), the TGI with 786-0 renal, with CCRF-CEM leukemia, with COLO 205 colon, with HL-60(TB) leukemia, in the assay with KM12 colon and with RXF 393 renal was more than 100 µM in each case. In addition, in the assay on SW-620 colon, the TGI is more than 100 µM.

Take `CCCCCCCCOCC(O)COC(=O)CCCCCCC` (stereo unspecified): the TGI with 786-0 renal was more than 100 µM; with CCRF-CEM leukemia, 35.7 µM; with COLO 205 colon it was more than 100 µM; in the assay on HCT-15 colon it was more than 100 µM; in the assay on HL-60(TB) leukemia, 93.9 µM; in the assay with SW-620 colon, more than 100 µM.
